Consider 86 molecules from a melting point compilation (Tetko et al.; mined from patent text by program, amines drawn as free bases though some values may be those of a salt).

On to `O=C(CN1CCCC1)c1ccc(F)cc1`, for which the melting point – broadly, the temperature of the solid-liquid transition – is 49 to 50 °C.

Molecule `CCCC(=O)c1ccc(NC(C)=O)cc1` registered a melting point of 141 to 143 °C.

As to `Cn1cc(Br)nc(Nc2cccnc2)c1=O`, the melting point is above 250 °C.

On to `O=C(c1ccc2c(c1)OCCO2)c1ccc2nc(Cl)nc(-c3cccc(Cl)c3)c2c1`, for which the melting point stood at 198 °C.

Consider `CCOC(=O)C1=CC(=NO)[C@@H](NC(C)=O)[C@@H]2OC(C)(C)O[C@H]12`, for which the melting point lay in the range of 106 to 116 °C.

With `CSc1nc(=O)n(-c2ccc(Cl)c(C(=O)OC(C)C)c2)c(=O)n1C#N`, the melting point fell in the range of 55 to 56 °C.

`O=C1NC(=O)c2c1c(-c1cc([N+](=O)[O-])cc([N+](=O)[O-])c1)cc1[nH]c3ccc(O)cc3c21` displayed a melting point above 330 °C.

On to `O=C1Cc2cc(NC(=O)C(=O)N3CCC(Cc4ccccc4)CC3)ccc2N1`, for which the melting point was in the range of 115 to 118 °C.

Regarding `C[C@H](NC(=O)[C@@H]1CCCN1CCC(=O)O)C(=O)N1CCC[C@H]1C(=O)O`, the melting point was in the range of 133 to 136 °C.

Consider `COc1ccc2cc([C@H](C)C(=O)OCCN(CCO[N+](=O)[O-])S(=O)(=O)c3ccc(C)cc3)ccc2c1`, for which the melting point lay in the range of 92 to 95 °C.

In turn, `CN1C(=O)C(NC(=O)NC2CCCCC2)N=C(c2ccccc2)c2ccccc21` (stereo unspecified) yielded a melting point of 287 to 288 °C.

As for `COc1cc(C)c(C(=O)c2c(Cl)cccc2Cl)c(O)c1OC`, the melting point came to 161 °C.

`CC(=O)N1CCC(C)(C)c2cc(/C(C)=C/c3ccc(C(=O)O)cc3)ccc21` showed a melting point of 200 to 202 °C.

Turning to `COC(=O)C1N2C(=O)C(NC(=O)COc3ccccc3)C2SCC1(C)Nc1ccccc1` (stereo unspecified), the melting point lay in the range of 129 to 130 °C.

`CC(C)(C)OC(=O)NCCN(O)C(N)=O` gave a melting point of 144 to 146 °C.

Molecule `CCCc1nn(-c2ccc(C(F)(F)F)cn2)cc1CCCOc1nn(C)cc1CC(=O)O` registered a melting point of 119 to 120 °C.

Consider `COc1cc(C(C)=O)ccc1NCCCN1CCC(c2noc3cc(F)ccc23)CC1`, for which the melting point is 96 to 98 °C.

With `OCCC(O)OCn1cc(I)c2c(Cl)ncnc21` (stereo unspecified), the melting point lay in the range of 155 to 156 °C.

As for `CCCCc1nc(Cl)c(COCc2ccccc2C(=O)O)n1Cc1ccc(-c2ccccc2-c2nnn[nH]2)cc1`, the melting point was in the range of 109 to 111 °C.

In the case of `ON(Cn1nnc2ccccc21)Cn1nnc2ccccc21`, the melting point lay within 173 to 174 °C.

In turn, `Cc1[nH]c(=O)ccc1C#N` displayed a melting point above 300 °C.

In turn, `CN(C)C(=O)Cc1c[nH]c2ccc(I)cc12` displayed a melting point of 195 to 200 °C.

`COc1nc(CO)ccc1CN1CC1C#N` (stereo unspecified): the melting point was in the range of 68 to 70 °C.

As for `C[Si](C)(C)c1cc(-c2ccc(F)cc2)c(-c2ccc(F)cc2)o1`, the melting point was 82 to 83 °C.

In the case of `CNCc1cccc(CN(C)c2nc(=O)c3c(C)c(OC)c(OC)cc3[nH]2)c1`, the melting point fell in the range of 179 to 181 °C.

`COC(=O)c1cc(Cl)c(Oc2ccc(OC)cc2)c(Cl)c1` had a melting point of 82 to 85 °C.

Turning to `Cc1c(C(=O)N[C@@H](Cc2ccc(OCc3ccsc3)cc2)C(=O)O)oc2cc(-c3ccc(Cl)cc3)ccc12`, the melting point is 111 to 113 °C.

As to `Cc1oc(-c2ccco2)nc1COc1ccc(CO)cc1Br`, the melting point was 141 to 142 °C.

`NNc1ccc2c(=O)[nH]ccc2c1` showed a melting point of 270 °C.

Molecule `CCCN1N=C(c2ccc(OC)c(OC)c2)[C@@H]2CCCC[C@@H]2C1=O` (relative stereo) had a melting point of 95 to 96 °C.

Molecule `CC(=CC(=O)O)Sc1c[nH]c2ccccc12` showed a melting point of 201 to 202 °C.

The molecule `CC(=O)NC1(c2ccc(CN3CCN(c4ccc(F)cc4F)CC3)cc2)CC1` had a melting point of 124 to 125 °C.

With `CCC1CC(=S)N(c2ccc3oc(=O)c(N4C(=O)C(CC)CC4=S)cc3c2)C1=O` (stereo unspecified), the melting point lay in the range of 128 to 131 °C.

For the molecule `CC1(C)CCC(C)(C)c2cc(-c3cc(-c4ccc(C(=O)O)cc4)ccc3O)ccc21`, the melting point lay within 240 to 241 °C.

For the molecule `Cc1ccc(-c2ccc(S(C)(=O)=O)cc2)n1-c1ccc(-c2ccco2)cc1`, the melting point is 145 to 147 °C.

`N#Cc1ccc(Oc2ccc(CC(=O)O)cc2)nc1`: the melting point is 148 to 151 °C.

For the molecule `CC(=O)NC[C@H]1CN(c2ccc(C(=O)c3cnc4ccccn34)cc2)C(=O)O1`, the melting point fell in the range of 218 to 220 °C.

`N#Cc1ccc(CCC(=O)C2CC2)cc1` showed a melting point of 76 °C.

`O=C1CCC(=O)N1Nc1c(Cl)cc(Cl)cc1Cl` gave a melting point of 114 to 115 °C.

With `COc1ccccc1SC(c1ccccc1)c1c(O)cc(-c2ccccc2)oc1=O` (stereo unspecified), the melting point is 165 to 170 °C.

`COc1ccc(C(=O)NCc2ccccc2)c2c1oc1ccc(NC(C)=O)cc12`: the melting point lay within 264 to 265 °C.

Regarding `CC(=O)N=C(OC(C)=O)N1CCSC1c1ccccc1OCCN1CCN(c2cccc(F)c2)CC1` (stereo unspecified), the melting point lay in the range of 114 to 115 °C.

`S=c1[nH]c2ccccc2cc1-c1ccccc1`: the melting point lay within 242 to 244 °C.

In the case of `O=C(Nc1n[nH]c(=S)s1)NC(Cc1ccccc1)C(=O)NCc1ccc(C(F)(F)F)cc1` (stereo unspecified), the melting point fell in the range of 217 to 218 °C.

`Nc1ncnc2c1ncn2[C@@H]1C[C@H](O)[C@@H](O)[C@H]1O` (racemic) gave a melting point of 282 °C.

In turn, `CC(C)(C)[Si](C)(C)O[C@H]1CC(=O)O[C@H](CO)C1` had a melting point of 102 °C.

For the molecule `NC(Cc1coc2c(Cl)cccc12)=NO`, the melting point lay within 142 to 145 °C.

Turning to `COc1cc(C(=O)O)ccc1CNC(=O)C1Cc2ccccc2N1S(=O)(=O)c1ccc(-c2cccc(C(F)(F)F)c2)cc1` (stereo unspecified), the melting point was 108 to 120 °C.

Molecule `Nc1nc(Nc2ccc([N+](=O)[O-])cc2)sc1C(=O)c1ccccc1[N+](=O)[O-]` showed a melting point of 266 to 268 °C.

The molecule `CC(C)(C)OC(=O)NC(COCc1ccccc1)C(=O)N1CCOCC1` (stereo unspecified) showed a melting point of 87 to 88 °C.

Molecule `O=C(N1CCOCC1)n1nnc2cc(Cl)c(Cl)cc21` came in with a melting point of 145 °C.

Molecule `CCCCCCn1nnc(NC(=O)Nc2c(C(C)C)cccc2C(C)C)n1` registered a melting point of 154 to 156 °C.

For `COc1ccc(CN(C)CCOc2ccc(NC(=O)c3cccc4c(=O)c5cc(SC)ccc5[nH]c34)cc2)cc1OC`, the melting point was determined as 160 °C.

For `CCCCCNC(=N)NC(N)=S`, the melting point fell in the range of 98 to 100 °C.

In the case of `CN(C)Cc1ccc(CSCCNC2=NS(=O)C(S(C)(=O)=O)=C2N)o1` (stereo unspecified), the melting point was 134 to 137 °C.

`Cn1nc(C(=O)Nc2ccc(OCC(C)(C)C)c(C#N)c2)cc1-c1ccccc1` displayed a melting point of 156 to 157 °C.

`C[C@@H](NC(=O)c1c[nH]c2ncc(-c3nn(C)c4c(F)c(F)ccc34)nc12)C(=O)N1CC(C#N)C1` showed a melting point of 240 to 250 °C.

In turn, `CCCCSc1c(CC(C)(C)C(=O)O)n(Cc2ccc(Cl)cc2)c2ccc(C(C)C)cc12` displayed a melting point of 129 to 130 °C.

In turn, `O=C(Nc1ccccc1F)c1ccc(CN2C(=O)C3(COc4cc5c(cc43)OCCO5)c3ccccc32)cc1` (stereo unspecified) registered a melting point of 245 to 251 °C.

Molecule `COc1cc(OC)nc(NC(=O)NS(=O)(=O)c2ncccc2CSC)n1` displayed a melting point of 145 to 147 °C.

`Cc1c(C2=CCC(Cc3ccccc3)(N(C)C)CC2)[nH]c2ccc(C#N)cc12` (stereo unspecified) showed a melting point of 120 to 123 °C.

Turning to `N#CCCC(CCC(=O)O)(c1ccccc1)c1ccccc1`, the melting point was 119 to 120 °C.

`COc1ccccc1N1CCN(CC(O)COc2ccccc2-c2ccnc(N)n2)CC1` (stereo unspecified) yielded a melting point of 147 to 149 °C.

As for `CCN(CC)C(=O)c1ccccc1C(C)(C)C`, the melting point was 38.5 to 40.5 °C.

`C=CC1CN(S(=O)(=O)c2ccc(C)cc2)CCN1S(=O)(=O)c1ccc(C)cc1` (stereo unspecified) showed a melting point of 177 to 178 °C.

Take `COc1cc(OC)c2c(=O)[nH]c(-c3ccc(OCCNC(C)C)c(-c4ccc(S(C)(=O)=O)cc4)n3)nc2c1`: the melting point fell in the range of 114 to 116 °C.

Consider `Cc1ccc(Cc2cnc(NCCCN(Cc3ccccc3)c3ccc(Br)cn3)[nH]c2=O)cn1`, for which the melting point lay in the range of 150 to 155 °C.

With `CC1(C)CC(=O)Nc2cc3nc(-c4ccncc4)[nH]c3cc21`, the melting point lay in the range of 201 to 202 °C.

For the molecule `CCOC(=O)CC1c2cc(OC)ccc2N(c2nc(Cl)nc3ccccc23)C1C` (stereo unspecified), the melting point fell in the range of 111 to 112 °C.

`Brc1ccc2c(c1)CC(N1CCNCC1)c1ccccc1S2` (stereo unspecified) displayed a melting point of 112 to 115 °C.

Regarding `CCN(CC)CCOc1ccc2c3c(cccc13)C(=O)c1c-2oc2ccccc12`, the melting point lay within 115 to 118 °C.

With `COC(=O)CC1c2ccc(Cl)cc2NC(=O)C1[N+](=O)[O-]` (stereo unspecified), the melting point was 135 °C.

For `Brc1ccc2c(c1)CCOC2CCN1CCN(c2ccc(OCc3ccccc3)cc2)CC1` (stereo unspecified), the melting point lay within 87 to 90 °C.

As for `Oc1ccnc2ccc3nc[nH]c3c12`, the melting point was 366 to 368 °C.

In turn, `CCC(=O)Nc1c(Sc2cc(C)cc(C)c2)c(C)c[nH]c1=O` yielded a melting point of 186 to 188 °C.

`O=C(Nc1cc2c(s1)-c1ccccc1OC2C1=CCCC=C1)C(F)(F)F` (stereo unspecified) displayed a melting point of 174 to 176 °C.

Take `COc1ccc(OC(=O)c2c3ccccc3nc3ccccc23)cc1`: the melting point was in the range of 202 to 203 °C.

`CC(C)C1Cc2ccccc2P1c1ccccc1P1c2ccccc2CC1C(C)C` (single isomer, unassigned; (+)) displayed a melting point of 70 to 71 °C.

`O=C(NCc1ccccn1)c1[nH]c2ccc(Cl)cc2c1S(=O)(=O)c1ccccc1` showed a melting point of 250 to 251 °C.

The molecule `Cc1ccc(S(=O)(=O)OCCN(CCOS(=O)(=O)c2ccc(C)cc2)S(=O)(=O)c2ccc(C)cc2)cc1` gave a melting point of 85 to 87 °C.

`CN(C)C1CCN(CCc2ccc(-c3cccc(N)n3)cc2)CC1` had a melting point of 174 to 176 °C.

As for `CCOC(=O)C=Cc1ccc(Cl)cc1NS(=O)(=O)c1ccc(C)cc1`, the melting point fell in the range of 124 to 127 °C.

The molecule `Cc1cc(Oc2ccc(Cl)c3c2CCCC3)c(Cl)cc1[N+](=O)[O-]` gave a melting point of 139 to 140 °C.

On to `CCCN(CCC)C1Cc2cccc3c2n(c(=O)n3C)C1` (stereo unspecified), for which the melting point lay in the range of 83 to 85 °C.

Molecule `O=C(CCc1ccccc1)N[C@H](Cc1ccc(C(F)(F)F)cc1)[C@@H](O)c1ccc(Cl)nc1` (racemic) showed a melting point of 149 to 150 °C.

`O=C(c1c(F)cccc1F)N1CS(=O)CN(c2ccc(Cl)cc2)C1=O` (stereo unspecified) yielded a melting point of 220 °C.
